Experimental data taken from patent publication US20060009478A1, “Methods for the treatment of back pain” (priority 2003, published 2006).

Tested on: patients with moderate to severe chronic low back pain
Test: Pain intensity (daily diary, 11-point numerical scale), low back pain study with titration and 12-week fixed-dose period
Type: in vivo, human
Conditions: for Pain intensity, change from baseline, MEAN (SD) / Pain intensity, percent change from baseline, MEAN (SD) / Pain intensity, actual value, MEAN (SD): LOCF imputation, average of last three days of dosing week; for Pain intensity, change from baseline, MEAN (SD) / Pain intensity, percent change from baseline, MEAN (SD) / Pain intensity, change from baseline, MAXIMUM / Pain intensity, change from baseline, MEDIAN / Pain intensity, change from baseline, MINIMUM / Pain intensity, percent change from baseline, MAXIMUM / Pain intensity, percent change from baseline, MEDIAN / Pain intensity, percent change from baseline, MINIMUM / Pain intensity, actual value, MEAN (SD) / Pain intensity, actual value, MAXIMUM / Pain intensity, actual value, MEDIAN / Pain intensity, actual value, MINIMUM: ITT population
Procedure: A multicenter, randomized, double-blind, active- and placebo-controlled study was designed and conducted.
In addition, adverse events and opioid-related adverse events were to be recorded in the daily diary.
For the pain intensity (PI) scale assessment, the patient was prompted with the question “How would you rate your overall pain intensity at this time?” and the PI score was recorded in the clinic at the Screening and Baseline Visits. Pain intensity was also assessed by prompting the patient with the questions “How would you rate your overall pain intensity during the past 24 hours?” and a daily PI diary score was recorded at bedtime. For both Pain Intensity prompts, the response was scored on an 11-point numerical scale (0=no pain and 10=severe pain).
The baseline average daily pain intensity score for each patient was calculated as the average of the daily bedtime pain intensity scores recorded during the 3 days immediately prior to baseline/start of titration period visit. The post-baseline average daily pain intensity scores were calculated as the average of the daily bedtime pain intensity scores recorded during the last 3 days of dosing prior to each visit. Missing data was imputed using the last-observation-carried-forward (LOCF) approach for efficacy variables in the fixed-dose period. If the first visit in the fixed-dose period was missing, the last value in the titration period was imputed forward. Unless indicated, all testing of statistical significance was two-sided, and a difference resulting in a p-value of equal to or less than 0.05 was considered statistically significant.
A primary efficacy endpoint was the percent change from baseline to the end of the fixed-dose period (Week 12) in average daily pain intensity. The percent change from baseline was calculated as [PI(baseline)−PI(fixed-dose)]/PI(baseline)*100. Data was summarized descriptively by treatment group. An analysis of covariance (ANCOVA) model including treatment and center as effects and baseline pain intensity as the covariate was used for global and pairwise inferences. Separate models were used to evaluate both the treatment by center and treatment by baseline pain intensity interaction terms.
A primary comparison of interest was oxycodone and naltrexone (e.g., BID or QID) versus oxycodone (e.g., QID). Secondary analyses included actual and percent change from baseline values of daily pain index, SF-12, and Oswestry disability index summarized descriptively by treatment group for both the titration and fixed-dose periods. Treatments were compared globally and in pairwise fashion at each visit in the fixed-dose period using an ANCOVA model that included treatment and center as effects and baseline pain intensity as the covariate. Separate models were used to evaluate both the treatment by center and treatment by baseline pain intensity interaction terms.

[1] = baseline to fixed dose week 1, LOCF
[2] = baseline to fixed dose week 2, LOCF
[3] = baseline to fixed dose week 3, LOCF
[4] = baseline to fixed dose week 4, LOCF
[5] = baseline to fixed dose week 5, LOCF
[6] = baseline to fixed dose week 6, LOCF

SMILES: COc1ccc2c3c1O[C@H]1C(=O)CC[C@@]4(O)[C@@H](C2)N(C)CC[C@]314 [OXY QID, oxycodone]
- Pain intensity, change from baseline, MEAN (SD) (baseline to fixed dose week 1): −3.6 (2.60)
- Pain intensity, percent change from baseline, MEAN (SD) (baseline to fixed dose week 1): −47.5 (33.12) percent
- Pain intensity, change from baseline, MAXIMUM [1]: 3.0
- Pain intensity, change from baseline, MEDIAN [1]: −3.7
- Pain intensity, change from baseline, MINIMUM [1]: −9.7
- Pain intensity, percent change from baseline, MAXIMUM [1]: 42.9%
- Pain intensity, percent change from baseline, MEDIAN [1]: −52.4%
- Pain intensity, percent change from baseline, MINIMUM [1]: −100.0%
- Pain intensity, change from baseline, MEAN (SD) (baseline to fixed dose week 2): −3.6 (2.59)
- Pain intensity, percent change from baseline, MEAN (SD) (baseline to fixed dose week 2): −47.1 (32.56) percent
- Pain intensity, change from baseline, MAXIMUM [2]: 3.0
- Pain intensity, change from baseline, MEDIAN [2]: −3.7
- Pain intensity, change from baseline, MINIMUM [2]: −9.7
- Pain intensity, percent change from baseline, MAXIMUM [2]: 42.9%
- Pain intensity, percent change from baseline, MEDIAN [2]: −50.0%
- Pain intensity, percent change from baseline, MINIMUM [2]: −100.0%
- Pain intensity, change from baseline, MEAN (SD) (baseline to fixed dose week 3): −3.7 (2.64)
- Pain intensity, percent change from baseline, MEAN (SD) (baseline to fixed dose week 3): −47.9 (33.29) percent
- Pain intensity, change from baseline, MAXIMUM [3]: 3.0
- Pain intensity, change from baseline, MEDIAN [3]: −4.0
- Pain intensity, change from baseline, MINIMUM [3]: −9.7
- Pain intensity, percent change from baseline, MAXIMUM [3]: 42.9%
- Pain intensity, percent change from baseline, MEDIAN [3]: −54.2%
- Pain intensity, percent change from baseline, MINIMUM [3]: −100.0%
- Pain intensity, change from baseline, MEAN (SD) (baseline to fixed dose week 4): −3.6 (2.68)
- Pain intensity, percent change from baseline, MEAN (SD) (baseline to fixed dose week 4): −47.4 (33.84) percent
- Pain intensity, change from baseline, MAXIMUM [4]: 3.0
- Pain intensity, change from baseline, MEDIAN [4]: −4.0
- Pain intensity, change from baseline, MINIMUM [4]: −9.7
- Pain intensity, percent change from baseline, MAXIMUM [4]: 42.9%
- Pain intensity, percent change from baseline, MEDIAN [4]: −53.3%
- Pain intensity, percent change from baseline, MINIMUM [4]: −100.0%
- Pain intensity, change from baseline, MEAN (SD) (baseline to fixed dose week 5): −3.6 (2.72)
- Pain intensity, percent change from baseline, MEAN (SD) (baseline to fixed dose week 5): −47.4 (34.44) percent
- Pain intensity, change from baseline, MAXIMUM [5]: 3.0
- Pain intensity, change from baseline, MEDIAN [5]: −4.0
- Pain intensity, change from baseline, MINIMUM [5]: −9.7
- Pain intensity, percent change from baseline, MAXIMUM [5]: 42.9%
- Pain intensity, percent change from baseline, MEDIAN [5]: −52.4%
- Pain intensity, percent change from baseline, MINIMUM [5]: −100.0%
- Pain intensity, change from baseline, MEAN (SD) (baseline to fixed dose week 6): −3.6 (2.70)
- Pain intensity, change from baseline, MAXIMUM [6]: 3.0
- Pain intensity, change from baseline, MEDIAN [6]: −4.0
- Pain intensity, change from baseline, MINIMUM [6]: −9.7
- Pain intensity, actual value, MEAN (SD) (fixed dose week 1): 3.9 (2.53)
- Pain intensity, actual value, MAXIMUM (fixed dose week 1, LOCF): 10.0
- Pain intensity, actual value, MEDIAN (fixed dose week 1, LOCF): 3.7
- Pain intensity, actual value, MINIMUM (fixed dose week 1, LOCF): 0.0
- Pain intensity, actual value, MEAN (SD) (fixed dose week 2): 3.9 (2.47)
- Pain intensity, actual value, MAXIMUM (fixed dose week 2, LOCF): 10.0
- Pain intensity, actual value, MEDIAN (fixed dose week 2, LOCF): 3.7
- Pain intensity, actual value, MINIMUM (fixed dose week 2, LOCF): 0.0
- Pain intensity, actual value, MEAN (SD) (fixed dose week 3): 3.9 (2.52)
- Pain intensity, actual value, MAXIMUM (fixed dose week 3, LOCF): 10.0
- Pain intensity, actual value, MEDIAN (fixed dose week 3, LOCF): 3.3
- Pain intensity, actual value, MINIMUM (fixed dose week 3, LOCF): 0.0
- Pain intensity, actual value, MEAN (SD) (fixed dose week 4): 3.9 (2.55)
- Pain intensity, actual value, MAXIMUM (fixed dose week 4, LOCF): 10.0
- Pain intensity, actual value, MEDIAN (fixed dose week 4, LOCF): 3.3
- Pain intensity, actual value, MINIMUM (fixed dose week 4, LOCF): 0.0
- Pain intensity, actual value, MEAN (SD) (fixed dose week 5): 3.9 (2.59)
- Pain intensity, actual value, MAXIMUM (fixed dose week 5, LOCF): 10.0
- Pain intensity, actual value, MEDIAN (fixed dose week 5, LOCF): 3.3
- Pain intensity, actual value, MINIMUM (fixed dose week 5, LOCF): 0.0
- Pain intensity, actual value, MEAN (SD) (fixed dose week 6): 3.9 (2.58)
- Pain intensity percent change from baseline to fixed dose week 6, maximum (fixed dose week 6, LOCF, ITT): 42.9%
- Pain intensity percent change from baseline to fixed dose week 6, mean (SD) (fixed dose week 6, LOCF, ITT): −47.5 (34.20) %
- Pain intensity percent change from baseline to fixed dose week 6, median (fixed dose week 6, LOCF, ITT): −51.9%
- Pain intensity percent change from baseline to fixed dose week 6, minimum (fixed dose week 6, LOCF, ITT): −100.0%
- Pain intensity, actual value, MAXIMUM (fixed dose week 6, LOCF): 10.0
- Pain intensity, actual value, MEDIAN (fixed dose week 6, LOCF): 3.3
- Pain intensity, actual value, MINIMUM (fixed dose week 6, LOCF): 0.0
